Source: US20260216294A1, “BETA 2-ADRENERGIC RECEPTOR AGONISTS FOR TREATMENT OR PREVENTION OF MUSCLE WASTING” (ATROGI AB, priority 2023, published 2026)

Tests used:
L6-myotubes [1] = experiment: Measurement of intracellular cAMP levels in differentiated L6-myotubes (Biological Example 3); assay type: cell-based; details: 0.25 h
How it was run: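 Intracellular cAMP quantified by AlphaScreen after ethanol extraction and lysis of L6 myotubes. Cells were serum-starved overnight, then exposed for 15 min to compound (final 1×10^−5 M) or isoprenaline in IBMX-containing (1 mM) HBSS buffer, pH 7.4.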

L6-myotubes [2] = experiment: Glucose uptake in differentiated L6-myotubes (Biological Example 2); assay type: cell-based; details: read-out: Biological example 2 (GU)
How it was run: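 Uptake was quantified as radioactivity in 0.2 M NaOH lysates after a 10 min pulse of 50 nM ^3H-2-deoxyglucose. The pulse followed two agonist exposures at 1×10^−5 M final (isoprenaline or test compound): 1 h 40 min, then 20 min in glucose-free medium after washing. L6 myotubes had been starved overnight in medium with 0.5% fatty-acid-free BSA.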

[3] = intracellular cAMP, compound at 10 μM relative to isoproterenol at 10 μM
[4] = glucose uptake, compound at 10 μM relative to isoproterenol at 10 μM
[5] = intracellular cAMP in differentiated L6-myotubes, compound at 10 μM, activity relative to isoproterenol at 10 μM
[6] = glucose uptake in differentiated L6-myotubes, compound at 10 μM, activity relative to isoproterenol at 10 μM

SMILES | Emax at 10 µM (L6-myotubes [1]; [3]) | Emax at 10 µM (L6-myotubes [2]; [4]) | Emax at 10 µM (L6-myotubes [1]; [5]) | Emax at 10 µM (L6-myotubes [2]; [6])
CCC[C@@H](C)NC[C@H](O)c1cccc(O)c1 [Compound 28, (R)-2-[(R)-1-methylbutylamino]-1-(m-hydroxyphenyl)-1-ethanol] | 50 to 75% | > 75% | – | –
O[C@H](c1cccc(F)c1)C12CCC(CCCc3ccccc3)(CC1)N2 [Compound 536, (R)-(m-fluorophenyl){4-(3-phenylpropyl)-7-azabicyclo[[2.2.1]]hept-1-yl}methanol] | – | – | 25 to 50% | > 75%
CC12CC(C1)[C@H]([C@@H](O)c1cccc(N)c1F)N2 [Compound 243, (S)-{(R)-1-methyl-2-azabicyclo[[2.1.1]]hex-3-yl}(3-amino-2-fluorophenyl)methanol] | – | – | < 25% | 50 to 75%
CC1(C)CC[C@H]([C@@H](O)c2cc(F)c(N)c(F)c2)N1 [Compound 236] | – | – | 25 to 50% | > 75%
CS(=O)(=O)N(Cc1ccccc1)CC12CCC([C@H](O)c3cccc(F)c3)(CC1)N2 [Compound 537, (R)-(4-{[(benzyl)-N-mesylamino]methyl}-7-azabicyclo[[2.2.1]]hept-1-yl)(m-fluorophenyl)methanol] | – | – | 25 to 50% | 50 to 75%
CC12CCC([C@@H](O)c3ccccc3Cl)(CC1)N2 [Compound 194, (S)-(o-chlorophenyl)(4-methyl-7-azabicyclo[[2.2.1]]hept-1-yl)methanol] | < 25% | > 75% | – | –
CCCC(C)NC(C)C(O)c1ccc(O)cc1 (centres unmarked) [Compound 13, 1-(p-hydroxyphenyl)-2-(1-methylbutylamino)-1-propanol] | < 25% | 50 to 75% | – | –
CCC[C@@H]1CC[C@@H]([C@H](O)c2cccc(F)c2)N1 [Compound 132, (R)-[(2S,5R)-5-propyl-2-pyrrolidinyl](m-fluorophenyl)methanol] | < 25% | 25 to 50% | – | –
CCCCCCNCC(O)c1ccc(O)cc1 (centres unmarked) [Compound 17, 2-(hexylamino)-1-(p-hydroxyphenyl)-1-ethanol] | < 25% | 25 to 50% | – | –
CCCCNC[C@H](O)c1ccccc1F [Compound 79, (R)-2-(butylamino)-1-(o-fluorophenyl)-1-ethanol] | < 25% | > 75% | – | –
CC(C)(NC[C@H](O)c1cncc(F)c1)[C@H]1CC[C@@H](O)CC1 [Compound 286, (R)-1-(5-fluoro-3-pyridyl)-2-{1-methyl-1-[(1s,4S)-4-hydroxycyclohexyl]ethylamino}-1-ethanol] | – | – | < 25% | 25 to 50%
O=C(N[C@H]1CC[C@H](CNC[C@H](O)c2cncc(F)c2)CC1)c1ccccc1 [Compound 317] | – | – | < 25% | 50 to 75%
O[C@@H](c1cccc(F)c1)C12CCC(CCCc3ccccc3)(CC1)N2 [Compound 535, (S)-(m-fluorophenyl){4-(3-phenylpropyl)-7-azabicyclo[[2.2.1]]hept-1-yl}methanol] | – | – | < 25% | 25 to 50%
CCC[C@@H]1CC[C@H]([C@H](O)c2ccccc2Cl)N1 [Compound 148, (R)-[(2R,5R)-5-propyl-2-pyrrolidinyl](o-chlorophenyl)methanol] | < 25% | > 75% | – | –
CC1(C)CC[C@H]([C@@H](O)c2cccc(F)c2)N1 [Compound 109, (S)-[(R)-5,5-dimethyl-2-pyrrolidinyl](m-fluorophenyl)methanol] | < 25% | 25 to 50% | – | –
CO[C@H]1CC[C@H](CNC[C@H](O)c2cncc(F)c2)CC1 [Compound 229, (R)-1-(5-fluoro-3-pyridyl)-2-({[(1r,4R)-4-methoxycyclohexyl]methyl}amino)-1-ethanol] | – | – | < 25% | 50 to 75%

SMILES | Emax at 10 µM (L6-myotubes [1]; [3]) | Emax at 10 µM (L6-myotubes [2]; [4]) | Emax at 10 µM (L6-myotubes [1]; [5]) | Emax at 10 µM (L6-myotubes [2]; [6])
CC(C)(NC[C@H](O)c1cncc(F)c1)[C@H]1CC[C@H](C(=O)O)CC1 [Compound 390, (1R,4r)-8-[(R)-2-(5-fluoro-3-pyridyl)-2-hydroxyethylamino]-7-hydroxy-p-menthan-7-one] | – | – | < 25% | 50 to 75%
CC(C)(C[C@H]1CC[C@H](N)CC1)NC[C@@H](O)c1cccc(C#N)n1 [Compound 415] | – | – | < 25% | 50 to 75%
CCC[C@H]1CCC[C@H]([C@@H](O)c2cccc(F)c2)N1 [Compound 70] | < 25% | 50 to 75% | – | –
CC1(C)CCC[C@@H]([C@H](O)c2cccc(F)c2)N1 [Compound 190] | < 25% | > 75% | – | –
COC(=O)[C@H]1CC[C@H](C(C)(C)NC[C@H](O)c2cccc(F)c2)CC1 [Compound 367, (1R,4r)-8-[(R)-2-(m-fluorophenyl)-2-hydroxyethylamino]-7-methoxy-p-menthan-7-one] | – | – | 25 to 50% | > 75%
Oc1ccc(C(O)CNC2CCCC2)cc1 (centres unmarked) [Compound 10, p-[2-(cyclopentylamino)-1-hydroxyethyl]phenol] | < 25% | 50 to 75% | – | –
CC(C)(C[C@H]1CC[C@H](NS(C)(=O)=O)CC1)NC[C@@H](O)c1cccc(C#N)n1 [Compound 428, 6-[(R)-2-{1,1-dimethyl-2-[(1r,4R)-4-(mesylamino)cyclohexyl]ethylamino}-1-hydroxyethyl]-2-pyridinecarbonitrile] | – | – | < 25% | < 25%
CC1(C)CCC[C@H]([C@@H](O)c2cccc(Cl)c2)N1 [Compound 164] | < 25% | 50 to 75% | – | –
CC(C)(NC[C@H](O)c1cncc(F)c1)[C@H]1CC[C@H](OCc2ccccc2)CC1 [Compound 281, (R)-1-(5-fluoro-3-pyridyl)-2-{1-methyl-1-[(1r,4R)-4-(benzyloxy)cyclohexyl]ethylamino}-1-ethanol] | – | – | < 25% | 50 to 75%
CC(C)(C[C@H]1CC[C@H](O)CC1)NC[C@H](O)c1cncc(F)c1 [Compound 299, (R)-2-{1,1-dimethyl-2-[(1r,4R)-4-hydroxycyclohexyl]ethylamino}-1-(5-fluoro-3-pyridyl)-1-ethanol] | – | – | < 25% | 50 to 75%
CC(=O)N[C@H]1CC[C@@H](CNC[C@H](O)c2cncc(F)c2)CC1 [Compound 310] | – | – | < 25% | 25 to 50%
CC(C)(C[C@H]1CC[C@@H](NC(=O)OC(C)(C)C)CC1)NC[C@H](O)c1cccc(C#N)n1 [Compound 414, (1R,4s)-4-{2-[(S)-2-(6-cyano-2-pyridyl)-2-hydroxyethylamino]-2-methylpropyl}cyclohexly 2-methyl-2-propanecarbamate] | – | – | < 25% | 50 to 75%
CC(C)(CC[C@H]1CC[C@H](O)CC1)NC[C@H](O)c1cccc(F)c1 [Compound 290, (R)-2-{1,1-dimethyl-3-[(1r,4S)-4-hydroxycyclohexyl]propylamino}-1-(m-fluorophenyl)-1-ethanol] | – | – | < 25% | 25 to 50%
CCCC(C)NCC(O)c1cc(Cl)c(O)c(Cl)c1 (centres unmarked) [Compound 25, 1-(3,5-dichloro-4-hydroxyphenyl)-2-(1-methylbutylamino)-1-ethanol] | < 25% | < 25% | – | –
CCC[C@H]1CCCC[C@@H]([C@H](O)c2cncc(F)c2)N1 [Compound 234, (R)-[(2S,7S)-7-propyl-2-azepanyl](5-fluoro-3-pyridyl)methanol] | – | – | < 25% | > 75%
